Legend:
[1] = parameters: species or system Male SD (Sprague-Dawley) rats; details: rat, in vivo, po, 0.036 mmol/kg
Description: Male SD (Sprague-Dawley) rats, weighing 180 to 300 g, were provided by Shanghai Xipuer-Beikai Experimental Animal Co., Ltd. The male animals were acclimatized to the environment for more than 3 days, and fasted for 12 hours overnight before the experiment, but were allowed to drink water. […] Before administration, the animals were checked to determine whether their body weights met the experimental requirements. Twelve rats were selected for grouping, two rats in each group. The drug solutions were administered intragastrically to the rats in an amount of 0.036 mmol/kg. The rats were euthanized with carbon dioxide gas and samples were collected, at 0.5 h, 1 h, 3 h, 6 h, 12 h, and 24 h, respectively. […] The supernatant plasma was taken, to which 10% trichloroacetic acid (containing PMPA as an internal standard, at a concentration of 100 ng/mL) was immediately added as a precipitant at a volume 5 times that of the plasma, to obtain plasma sample solutions. […] Two ceramic beads were added to each of the homogenization tubes for homogenization to obtain tissue homogenate samples. 100 μL of each biological sample was taken, placed in a 1.5 mL test tube, and centrifuged for 5 min. 20 μL of the supernatant was taken and mixed uniformly with 180 μL of water and then analyzed by LC-MS/MS. LC-MS/MS-AJ (Triple Quad 5500, AB SCIEX) was used for analysis of the samples. Chromatographic Column: Acquity UPLC HSS T3 (2.1×50 mm, 1.8 μm); Column Temperature: 40° C.; Flow Rate: 0.5 mL/min. Mobile Phase A: 0.1% formic acid in water, Mobile Phase B: Acetonitrile Solution. The mass spectrometry was performed with an electrospray ionization source (Turbo Ionspray) as an ion source, in a positive ion mode, at a capillary voltage of 3.0 kV, at a temperature of 500° C., and at a desolvation gas flow of 1000 L/h. The scanning time, cone voltage, collision energy, and the ion reaction for quantitative analysis were shown in Table 6 below: The concentration of the metabolite from each of the compounds in the liver was plotted as a function of time on a bar chart.

[2] = tested on: lamivudine-resistant virus strains; details: read-out: EC50, inhibitory activity against lamivudine-resistant virus strains; cited from earlier work
hepatitis B virus (HBV) = details: read-out: EC50, antiviral activity in vitro; cited from earlier work
[3] = In-vitro metabolism in rat liver microsomes, release of ETVMP (Example 24); assay type: in vitro ADME; details: result in words
Excerpt: (§1) Human liver microsomes (HLM) were purchased from IVT (In Vitro Technologies) (Product No. X008070, Batch No. SSP). Rat liver microsomes (RLM) were purchased from BD with a batch number of 16298, and mice liver microsomes (MLM) were purchased from Research Institute for Liver Diseases (Shanghai) Co., Ltd. (RILD), with a batch number of BQNI.
(§2) The test compounds PA3001, PA3002, PA3003, and PA3004 were synthesized by Zhejiang Palo Alto Pharmaceuticals, Inc., and dissolved in methanol (from Sinopharm Chemical Reagent Co., Ltd.) to prepare storage solutions at a concentration of 25 mM.
(§3) The enzymatic reaction was carried out in a 100 mM KH2PO4 buffer solution (pH 7.4), with a test compound at a concentration of 25 μM, human liver microsomes at a concentration of 2 mg/ml, and NADPH at a concentration of 2 mM. The reaction was initiated by NADPH which was added last. After the reaction was carried out for 5 min in a constant-temperature shaking water bath kettle, methanol at a volume of 1.5 times that of the reaction mixture was added immediately to terminate the reaction.
(§4) Each sample was centrifuged at a maximum speed of 13,600 rpm for 20 minutes using an Eppendorf tabletop centrifuge. The supernatant was taken, and was blow-dried by a nitrogen blower and then re-dissolved in mobile phase A (0.1% formic acid (v/v) in water).
(§5) • Analysis Column: Waters, Acquity UPLC HSS T3 Column • Flow Rate: 0.5 ml/min • Column Temperature: 40 degrees Celsius • III. Mass Spectrometry Condition • Ion Source: Electrospray Ionization Source • Ion Mode: Positive Ion Mode • Capillary Voltage: 3.0 kV • Temperature: 500° C. • Desolvation Gas Flow Rate: […] • Scan Time: 0.025 s • Cone Voltage: 40 V • Collision Energy: 18 eV • Q1 (m/z): 358 • Q3 (m/z): 152

[4] = In-vitro metabolism in human liver microsomes, release of ETVMP (Example 24); assay type: in vitro ADME; details: result in words
Excerpt: as §1, §2, §3, §4, §5

[5] = In-vitro metabolism in mice liver microsomes, release of ETVMP (Example 24); assay type: in vitro ADME, mouse; details: result in words
Excerpt: as §1, §2, §3, §4, §5

Structure (SMILES)	AUC0-24 h of ETVMP in Liver [1]	AUC0-24 h of ETVMP in Plasma [1]	EC50 [2]	EC50 (hepatitis B virus (HBV))	AUC0-24 h of ETVMP in Brain Tissue [1]	Activated in vitro into monophosphate metabolite ETVMP by rat liver microsomes [3]	Activated in vitro into monophosphate metabolite ETVMP by human liver microsomes [4]	Activated in vitro into monophosphate metabolite ETVMP by mouse liver microsomes [5]	Efficiency of activation by human liver microsomes into ETVMP compared with comparative compound PA3001 [4]	Rank of conversion rate among tested compounds, rat liver microsomes ([3]; Table 3)	Rank of conversion rate among tested compounds, human liver microsomes ([4]; Table 3)	Rank of conversion rate among tested compounds, mouse liver microsomes ([5]; Table 3)
C=C1[C@@H](CO)[C@@H](O)C[C@@H]1n1cnc2c(=O)[nH]c(N)nc21 [ETV, 2-amino-9-[(1S,3S,4S)-4-hydroxy-3-hydroxymethyl-2-methylenecyclopentyl]-1,9-dihydro-6H-purine-6-one, reference compound]	16.6 nmol·h/g	0.55 nmol·h/g	10 to 59 nM	4 nM	–	–	–	–	–	–	–	–
C=C1[C@H](COP2(=O)OCC[C@H](c3cccc(Cl)c3)O2)[C@@H](O)C[C@@H]1n1cnc2c(=O)[nH]c(N)nc21 (stereo partly drawn) [PA3001]	16.2 nmol·h/g	0.17 nmol·h/g	–	–	0.2 nmol·h/g	activated	activated	activated	–	–	–	–
C=C1[C@H](COP2(=O)OCC[C@H](c3cc(F)cc(Cl)c3)O2)[C@@H](O)C[C@@H]1n1cnc2c(=O)[nH]c(N)nc21 (stereo partly drawn) [PA3002]	8.1 nmol·h/g	0.03 nmol·h/g	–	–	–	–	–	–	significantly greater	–	–	–
C=C1[C@H](COP2(=O)OCC[C@H](c3ccncc3)O2)[C@@H](O)C[C@@H]1n1cnc2c(=O)[nH]c(N)nc21 (stereo partly drawn) [PA3003]	18.9 nmol·h/g	0.19 nmol·h/g	–	–	1.1 nmol·h/g	activated	activated	activated	–	–	–	–
C=C1[C@H](COP2(=O)OCC[C@H](c3cc(Cl)ccc3F)O2)[C@@H](O)C[C@@H]1n1cnc2c(=O)[nH]c(N)nc21 (stereo partly drawn) [PA3004]	11.6 nmol·h/g	0.09 nmol·h/g	–	–	–	activated	activated	activated	significantly greater	highest rate	highest rate	highest rate
C=C1[C@H](COP2(=O)OCC[C@H](c3cc(Cl)ccc3Cl)O2)[C@@H](O)C[C@@H]1n1cnc2c(=O)[nH]c(N)nc21 (stereo partly drawn) [PA3017]	9.0 nmol·h/g	0.08 nmol·h/g	–	–	–	–	–	–	–	–	–	–
